For data set [1], the target named is T1, human recombinant PTP1B (hPTP1B) (Homo sapiens, UniProt P18031).
T1 construct: made in house
T1 sequence (P18031 1-435): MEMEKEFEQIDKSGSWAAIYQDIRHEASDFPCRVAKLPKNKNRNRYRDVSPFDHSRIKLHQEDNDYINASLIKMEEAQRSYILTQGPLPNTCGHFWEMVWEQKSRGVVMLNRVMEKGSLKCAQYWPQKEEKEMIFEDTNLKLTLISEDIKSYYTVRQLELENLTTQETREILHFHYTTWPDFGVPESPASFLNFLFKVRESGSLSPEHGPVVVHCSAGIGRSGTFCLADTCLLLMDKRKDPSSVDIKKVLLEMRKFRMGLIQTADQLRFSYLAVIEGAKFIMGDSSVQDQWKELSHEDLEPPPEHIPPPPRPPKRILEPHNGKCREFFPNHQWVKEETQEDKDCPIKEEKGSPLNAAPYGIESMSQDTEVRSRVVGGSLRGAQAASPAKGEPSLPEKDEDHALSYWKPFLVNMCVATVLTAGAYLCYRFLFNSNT
Briefly: Inhibition of tri-phosphorylated insulin receptor dodecaphosphopeptide dephosphorylation by hPTP1B (malachite green phosphate detection). The format is biochemical. The note with it: for IC50: recombinant PTP1B, insulin receptor 1142-1153 triphosphopeptide substrate, 37° C., 30 min, pH 7.4.

The structures appear in SMILES notation.

Usually IC50 stands for the concentration that inhibits the measured activity by half. The term melting point denotes the temperature, or range, at which the solid turns liquid. The inhibition is the drop in the measured response relative to a control, in per cent.

Turning to `Cc1oc(Cc2ccc(Br)cc2)c(C(=O)c2ccc(OS(=O)(=O)c3ccc(C(=O)O)c(O)c3)c(C3CCCC3)c2)c1C` [Example 13, 4-{4-[2-(4-Bromo-benzyl)4,5-dimethyl-furan-3-carbonyl]-2-cyclopentyl-phenoxysulfonyl}-2-hydroxy-benzoic acid], the melting point was in the range of 188 to 192 °C. Moreover, in data set [1], the IC50 was 267 nM.

The compound `Cc1sc(Cc2ccc(Br)cc2)c(C(=O)c2ccc(OS(=O)(=O)c3cnn(C)c3)c(C3CCCC3)c2)c1C` [Example 27, 1-Methyl-1H-pyrazole-4-sulfonic acid 4-[2-(4-bromo-benzyl)-4,5-dimethyl-thiophene-3-carbonyl]-2-cyclopentyl-phenyl ester] registered a melting point of 55 to 60 °C. Further, the inhibition at 1 µM in data set [1] (compound at 1.0 μM, percent of phosphatase control) came to 22.7%.

`Cc1oc(Cc2ccccc2Br)c(C(=O)c2cc(C(C)C)c(OS(=O)(=O)c3ccc(C(=O)O)c(O)c3)c(C(C)C)c2)c1C` [Example 9, 4-{4-[2-(2-Bromo-benzyl)-4.5-dimethyl-furan-3-carbonyl]-2.6-diisopropyl-phenoxysulfonyl}-2-hydroxy-benzoic acid] showed a melting point of 90 to 95 °C. For the same compound, in data set [1], the half-inhibitory concentration (IC50) stood at 83 nM.

On to `Cc1oc(Cc2cccc(Br)c2)c(C(=O)c2cc(C(C)C)c(OS(=O)(=O)c3ccc(C(=O)O)c(O)c3)c(C(C)C)c2)c1C` [Example 10, 4-{4-[2-(3-Bromo-benzyl)-4.5-dimethyl-furan-3-carbonyl]-2.6-diisopropylphenoxysulfonyl}-2-hydroxy-benzoic acid], for which the melting point came out at 148 °C. The IC50 in data set [1] was 226 nM.

Consider `Cc1oc(Cc2ccccc2)c(C(=O)c2ccc(OS(=O)(=O)c3ccc(C(=O)O)c(O)c3)c(C3CCCC3)c2)c1C` [Example 17, 4-[4-(2-Benzyl-4,5-dimethyl-furan-3-carbonyl)-2-cyclopentyl-phenoxysulfonyl]-2-hydroxy-benzoic acid], for which the melting point is 80 to 85 °C. In addition, the concentration for half-maximal inhibition (IC50) in data set [1] turned out to be 643 nM.

`CC(=O)Oc1cc(S(=O)(=O)Oc2ccc(C(=O)c3c(Cc4ccccc4)oc(C)c3C)cc2C2CCCC2)ccc1C(=O)O` [Example 22, 2-Acetoxy4-[4-(2-benzyl-4,5-dimethyl-furan-3-carbonyl)-2-cyclopentyl-phenoxysulfonyl]-benzoic acid] came in with a melting point of 55 to 90 °C. Also, the IC50 in data set [1] came to 508 nM.

`O=C(O)c1ccc(S(=O)(=O)Oc2ccc(CCc3c(Cc4ccccc4)sc4ccccc34)cc2)cc1O` [Example 12, 4-{4-[2-(2-Benzyl-benzo[b]thiophen-3-yl)thyl]-phenoxysulfonyl}-2-hydroxy-benzoic acid] gave a melting point of 57 to 59 °C. Besides, the IC50 in data set [1] came out at 183 nM.

`Cc1oc(Cc2ccccc2Br)c(C(=O)c2ccc(OS(=O)(=O)c3ccc(C(=O)O)c(O)c3)c(C3CCCC3)c2)c1C` [Example 21, 4-{4-[2-(2-Bromo-benzyl)4,5-dimethyl-furan-3-carbonyl]-2-cyclopentyl-phenoxysulfonyl}-2-hydroxy-benzoic acid] showed a melting point of 72 to 82 °C. In data set [1], the half-inhibitory concentration (IC50) was 371 nM.

Turning to `Cc1oc(Cc2ccc3ccccc3c2)c(C(=O)c2cc(C(C)C)c(OS(=O)(=O)c3ccc(C(=O)O)c(O)c3)c(C(C)C)c2)c1C` [Example 8, 4-[4-(4,5-Dimethyl-2-naphthalen-2-ylmethyl-furan-3-carbonyl)-2,6-diisopropyl-phenoxysulfonyl]-2-hydroxy-benzoic acid], the melting point was 130 to 135 °C. The concentration for half-maximal inhibition (IC50) in data set [1] came to 75 nM.

On to `Cc1oc(Cc2ccc(Br)cc2)c(C(=O)c2cc(C(C)C)c(OS(=O)(=O)c3ccc(C(=O)O)c(O)c3)c(C(C)C)c2)c1C` [Example 11, 4-{4-[2-(4-Bromo-benzyl)4,5-dimethyl-fuiran-3-carbonyl]-2,6-diisopropyl-phenoxysulfonyl}-2-hydroxy-benzoic acid], for which the melting point was in the range of 165 to 168 °C. In data set [1], the concentration for half-maximal inhibition (IC50) is 99 nM.

The compound `CC(=O)Oc1cc(S(=O)(=O)Oc2ccc(C(=O)c3c(Cc4ccccc4Br)oc(C)c3C)cc2C2CCCC2)ccc1C(=O)O` [Example 25, 2-Acetoxy-4-{4-[2-(2-Bromo-benzyl)-4,5-dimethyl-fuiran-3-carbonyl]-2-cyclopentyl-phenoxysulfonyl}-benzoic acid] returned a melting point of 79 °C. The IC50 in data set [1] amounted to 241 nM.

Compound `CCCCc1oc2ccccc2c1Cc1ccc(OS(=O)(=O)c2ccc(C(=O)O)c(O)c2)cc1` [Example 28, 4-[4-(2-Butyl-benzofuran-3-ylmethyl)-phenoxysulfonyl]-2-hydroxy-benzoic acid] had a melting point of 135 to 138 °C. The IC50 in data set [1] came out at 577 nM.

As to `CCCCc1oc2ccccc2c1C(=O)c1cc(-c2ccccc2)c(OS(=O)(=O)c2ccc(C(=O)O)c(O)c2)c(-c2ccccc2)c1` [Example 2, 4-[5′-(2-Butyl-benzofuran-3-carbonyl)-[1,1′; 3′1″]terphenyl-2′-yloxysulfonyl]-2-hydroxy-benzoic acid], the melting point was in the range of 190 to 197 °C. In addition, the IC50 in data set [1] amounted to 130 nM.

As to `CCc1oc2ccccc2c1C(=O)c1cc(C(C)C)c(OS(=O)(=O)c2ccc(C(=O)O)c(O)c2)c(C(C)C)c1` [Example 4, 4-[4-(2-Ethyl-benzofuran-3-carbonyl)-2,6-diisopropyl-phenoxysulfonyl]-2-hydroxy-benzoic acid], the melting point lay in the range of 200 to 201 °C. Moreover, in data set [1], the IC50 turned out to be 559 nM.

As to `CCc1cc(C(=O)c2c(Cc3ccccc3)oc(C)c2C)cc(CC)c1OS(=O)(=O)c1ccc(C(=O)O)c(O)c1` [Example 19, 4-[4-(2-Benzyl-4,5-dimethyl-furan-3-carbonyl)-2.6-diethyl-phenoxysulfonyl]-2-hydroxy-benzoic acid], the melting point was 143 to 147 °C. The half-inhibitory concentration (IC50) in data set [1] was 633 nM.

Compound `Cc1oc(Cc2ccccc2)c(C(=O)c2cc(C(C)C)c(OS(=O)(=O)c3ccc(C(=O)O)c(O)c3)c(C(C)C)c2)c1C` [Example 5, 4-[4-(2-Benzyl-4,5-dimethyl-furan-3-carbonyl)-2,6-diisopropyl-phenoxysulfonyl]-2-hydroxy-benzoic acid] had a melting point of 142 to 143 °C. The IC50 in data set [1] is 83 nM.

For `Cc1cc(C(=O)c2c(Cc3ccccc3)oc(C)c2C)cc(-c2ccccc2)c1OS(=O)(=O)c1ccc(C(=O)[O-])c(O)c1.[Na+]` [Example 7, 4-[5-(2-Benzyl4,5-dimethyl-furan-3-carbonyl)-3-methyl-biphenyl-2-yloxysulfonyl]-2-hydroxy-benzoic acid sodium salt], the melting point was in the range of 187 to 190 °C. For the same compound, the IC50 in data set [1] was found to be 180 nM.

Turning to `CCc1oc2ccccc2c1C(=O)c1cc(C)c(OS(=O)(=O)c2ccc(C(=O)O)c(O)c2)c(C)c1` [Example 3, 4-[4-(2-Ethyl-benzofuran-3-carbonyl)-2,6-dimethyl-phenoxysulfonyl]-2-hydroxy-benzoic acid], the melting point was in the range of 166 to 167 °C. The IC50 in data set [1] turned out to be 421 nM.
